According to EP0232089B1, “Quinone amides, their production and use” (Takeda Chemical Industries, Ltd., priority 1986, dated 1987):
Marks after values point to notes of the source that are not given here.

System: Bronchoconstriction in guinea pigs induced by PAF
Assay: Platelet activating factor (PAF)-induced bronchoconstriction in guinea pigs (method of Konzett-Rossler)
Type: in vivo
Details: 8 animals
Procedure: Platelet activating factor (PAF)-induced bronchoconstriction in guinea pigs
Bronchoconstriction in guinea pigs induced by PAF (1 µg/kg, intravenous injection) was measured by the method of Konzett-Rossler. The following procedure was the same as that in leukotriene D4(LTD4)-induced bronchoconstriction. Test drugs were orally administered as a 5% gum arabic solution one hour before administration of PAF. Table 2 Inhibitory action against bronchoconstriction in guinea pigs

[1] = dose 5 mg/kg orally as 5% gum arabic solution one hour before PAF (1 µg/kg, intravenous injection)

Row | SMILES | % inhibition [1] | % inhibition (dose 0.313 mg/kg orally as 5% gum arabic solution one hour before PAF (1 µg/kg, intravenous injection)) | % inhibition (dose 1.25 mg/kg orally as 5% gum arabic solution one hour before PAF (1 µg/kg, intravenous injection))
1 | CC1=C(C)C(=O)C(C(CCCCCC(=O)N2CCN(CCc3ccccc3)CC2)c2ccccc2)=C(C)C1=O (racemic) [Compound No. 18, 7-(3,5,6-trimethyl-1 ,4-benzoquinon-2-yl)-7-phenylheptanoic acid 4-(2-phenylethyl)-piperazinamide] | 59.9* % |  | 
2 | CC1=C(C)C(=O)C(C(CCCCCC(=O)NC(Cc2ccccc2)C(=O)O)c2ccccc2)=C(C)C1=O (centres unmarked) [Compound No. 30] | 72.1* % |  | 
3 | CC1=C(C)C(=O)C(C(CCCCCC(N)=O)c2ccccc2)=C(C)C1=O (centres unmarked) [Compound No. 1, 7-(3,5,6-trimethyl-1,4-benzoquinon-2-yl)-7-phenylheptanamide] | 100.0** % | 49.7* % | 80.3** %
